Experimental data as given in US20100168084A1, “Therapeutic compounds and related methods of use” (priority 2008, published 2010).
Like-named read-outs stand apart in the source and are kept apart here.

Biological target: T1, sirtuin protein (Homo sapiens, UniProt Q96EB6)
T1 sequence (Q96EB6 2-747 limits assumed): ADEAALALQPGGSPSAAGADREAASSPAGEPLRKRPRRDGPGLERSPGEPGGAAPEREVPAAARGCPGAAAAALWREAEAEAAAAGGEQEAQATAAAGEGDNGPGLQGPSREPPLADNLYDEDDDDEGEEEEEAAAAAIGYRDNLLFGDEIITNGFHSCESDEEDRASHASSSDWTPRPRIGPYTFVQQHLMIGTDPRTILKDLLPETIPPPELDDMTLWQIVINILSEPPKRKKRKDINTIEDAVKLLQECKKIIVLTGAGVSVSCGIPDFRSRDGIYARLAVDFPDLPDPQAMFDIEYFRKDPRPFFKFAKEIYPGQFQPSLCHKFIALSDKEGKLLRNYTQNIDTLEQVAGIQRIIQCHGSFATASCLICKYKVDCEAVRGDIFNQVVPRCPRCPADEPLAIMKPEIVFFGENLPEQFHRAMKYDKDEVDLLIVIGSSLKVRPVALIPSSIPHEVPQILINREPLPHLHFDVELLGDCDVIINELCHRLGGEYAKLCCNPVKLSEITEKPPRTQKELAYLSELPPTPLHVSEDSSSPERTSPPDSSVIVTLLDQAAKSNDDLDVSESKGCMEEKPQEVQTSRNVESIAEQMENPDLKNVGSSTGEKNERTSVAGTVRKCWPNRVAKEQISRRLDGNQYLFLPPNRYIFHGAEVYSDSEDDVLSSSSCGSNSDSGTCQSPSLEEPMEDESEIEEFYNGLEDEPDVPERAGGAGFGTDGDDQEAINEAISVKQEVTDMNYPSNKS
Assay: MS assay (IC50 MS ASSAY / ED50 MS / FOLD ACTIVATION MS)
Assay type: biochemical
Set-up: scale not given here

[1] = Table 4, class symbols A′, A, B, D, NA, legend not given
[2] = class symbols (A′, A, B, D, NA), no legend given
[3] = Table 4, class symbols, legend not given
[4] = MS assay, class symbols A′, A, B, D, NA, legend not given
[5] = MS assay, class symbols, key not given
[6] = Table 4, class symbols A′, A, B, C, NA, legend not given

COc1ccc(C(=O)Nc2ccc(-c3nc4cnccc4s3)s2)c(OC)c1 [Compound 515]
A′: ED50 MS ASSAY | ED50 MS ASSAY (Table 4) | ED50 MS ASSAY (Table 4, class symbols) | ED50 MS ASSAY [1] | ED50 MS ASSAY [2]

COc1ccc(C(=O)Nc2cccc(-c3nc4ncccc4[nH]3)c2)c(OC)c1 [Compound 184]
A′: ED50 MS ASSAY (TABLE 4) | ED50 MS ASSAY (Table 4) | ED50 MS ASSAY [3] | ED50 MS ASSAY (class symbols, no key given)

COc1cc(C(=O)Nc2ccccc2-c2nc3ccccc3[nH]2)ccc1CN1CCNCC1 [Compound 558]
A′: ED50 MS ASSAY | ED50 MS ASSAY (Table 4) | ED50 MS ASSAY (Table 4, class symbols) | ED50 MS ASSAY [1] | ED50 MS ASSAY [2]

O=C(Nc1ccccc1-c1cn2c(CCN3CCNCC3)csc2n1)c1cnc2ccccc2n1 [Compound 680]
A′: ED50 MS ASSAY | ED50 MS ASSAY (Table 4) | ED50 MS ASSAY (Table 4, class symbols) | ED50 MS ASSAY [1] | ED50 MS ASSAY [2]

O=C(Nc1ccccc1-c1nc2ccccc2[nH]1)c1ccc2ccccc2n1 [Compound 556]
A′: ED50 MS ASSAY | ED50 MS ASSAY (Table 4) | ED50 MS ASSAY (Table 4, class symbols) | ED50 MS ASSAY [1] | ED50 MS ASSAY [2]

CN(C)c1ccc(C(=O)Nc2cccc(-c3nc4cnccc4s3)c2)cc1 [Compound 403]
A′: ED50 MS ASSAY [4] | ED50 MS ASSAY (Table 4) | ED50 MS ASSAY [1]

Cc1c(C(=O)Nc2ccccc2-c2cn3c(CN4CCNCC4)csc3n2)oc2ccccc12 [Compound 442]
A′: ED50 MS ASSAY [4] | ED50 MS ASSAY (Table 4) | ED50 MS ASSAY [1]

COc1cc(OC)cc(C(=O)Nc2ccccc2-c2nc3ccncc3o2)c1 [Compound 456]
A′: ED50 MS ASSAY [4] | ED50 MS ASSAY (Table 4) | ED50 MS ASSAY [1]

CN(C)c1cccc(C(=O)Nc2ccccc2-c2nc3cnccc3o2)c1 [Compound 406]
A′: ED50 MS ASSAY [4] | ED50 MS ASSAY (Table 4) | ED50 MS ASSAY [1]

O=C(Nc1ncccc1-c1cn2c(CN3CCOCC3)csc2n1)c1cnc2ccccc2n1 [Compound 621]
A′: ED50 MS ASSAY | ED50 MS ASSAY (Table 4) | ED50 MS ASSAY (Table 4, class symbols) | ED50 MS ASSAY [1] | ED50 MS ASSAY [2]

O=C(Nc1ccccc1-c1nc2cc(CN3CCNCC3)cnc2s1)c1cnc2ccccc2n1 [Compound 622]
A′: ED50 MS ASSAY | ED50 MS ASSAY (Table 4) | ED50 MS ASSAY (Table 4, class symbols) | ED50 MS ASSAY [1] | ED50 MS ASSAY [2]

COc1cc(C(=O)Nc2cccc(-c3nc4ccccc4[nH]3)n2)cc(OC)c1OC [Compound 259]
A′: ED50 MS ASSAY [4] | ED50 MS ASSAY (Table 4) | ED50 MS ASSAY [1]

COc1cc(OC)cc(C(=O)Nc2ccccc2-c2nc3cc(CN(C)C)cnc3s2)c1 [Compound 722]
A′: ED50 MS ASSAY | ED50 MS ASSAY [5] | ED50 MS ASSAY (TABLE 4) | ED50 MS ASSAY (Table 4) | ED50 MS ASSAY [6]

O=C(Nc1ccccc1-c1cn2c(n1)CCCC2)c1ccc2ccccc2n1 [Compound 547]
A′: ED50 MS ASSAY | ED50 MS ASSAY (Table 4) | ED50 MS ASSAY (Table 4, class symbols) | ED50 MS ASSAY [1] | ED50 MS ASSAY [2]

O=C(Nc1ccccc1-c1cn2c(CN3CCNCC3)csc2n1)c1ccc(-c2ccccc2)cc1 [Compound 708]
A′: ED50 MS ASSAY | ED50 MS ASSAY [5] | ED50 MS ASSAY (TABLE 4) | ED50 MS ASSAY (Table 4) | ED50 MS ASSAY [6]

COc1ccc(-c2cc(C(=O)Nc3ccccc3-c3cn4c(CN5CCNCC5)csc4n3)[nH]n2)cc1 [Compound 735]
A′: ED50 MS ASSAY | ED50 MS ASSAY [5] | ED50 MS ASSAY (TABLE 4) | ED50 MS ASSAY (Table 4) | ED50 MS ASSAY [6]

COc1ccc(C(=O)Nc2ccc(-c3nc4ccncc4o3)s2)c(OC)c1 [Compound 561]
A′: ED50 MS ASSAY | ED50 MS ASSAY (Table 4) | ED50 MS ASSAY (Table 4, class symbols) | ED50 MS ASSAY [1] | ED50 MS ASSAY [2]

Cc1ccc(C(=O)Nc2ccccc2-c2nc3cc(CN4CCNCC4)cnc3s2)cc1C [Compound 591]
A′: ED50 MS ASSAY | ED50 MS ASSAY (Table 4) | ED50 MS ASSAY (Table 4, class symbols) | ED50 MS ASSAY [1] | ED50 MS ASSAY [2]

COc1ccc(C(=O)Nc2cccc(-c3nc4cccnc4s3)c2)cc1 [Compound 216]
A′: ED50 MS ASSAY (TABLE 4) | ED50 MS ASSAY (Table 4) | ED50 MS ASSAY [3] | ED50 MS ASSAY (class symbols, no key given)

COc1ccc(C(=O)Nc2cccc(-c3nc4cccnc4s3)c2)c(OC)c1 [Compound 213]
A′: ED50 MS ASSAY (TABLE 4) | ED50 MS ASSAY (Table 4) | ED50 MS ASSAY [3] | ED50 MS ASSAY (class symbols, no key given)

O=C(Nc1ccccc1-c1cn2c(CN3CCOCC3)csc2n1)c1cnc2ccccc2n1 [Compound 617]
A′: ED50 MS ASSAY | ED50 MS ASSAY (Table 4) | ED50 MS ASSAY (Table 4, class symbols) | ED50 MS ASSAY [1] | ED50 MS ASSAY [2]

COc1ccc(C(=O)Nc2cccc(-c3nc4ccccc4[nH]3)n2)cc1OC [Compound 260]
A′: ED50 MS ASSAY [4] | ED50 MS ASSAY (Table 4) | ED50 MS ASSAY [1]

O=C(Nc1ccccc1-c1cn2c(CN3CCNCC3)csc2n1)c1cnccn1 [Compound 543]
A′: ED50 MS ASSAY | ED50 MS ASSAY (Table 4) | ED50 MS ASSAY (Table 4, class symbols) | ED50 MS ASSAY [1] | ED50 MS ASSAY [2]

CN(C)c1ccc(C(=O)Nc2ccccc2-c2nc3cnccc3s2)cc1 [Compound 320]
A′: ED50 MS ASSAY [4] | ED50 MS ASSAY (Table 4) | ED50 MS ASSAY [1]

O=C(Nc1ccccc1-c1cn2c(CN3CCNCC3)csc2n1)c1cccc(-c2ccccc2)c1 [Compound 710]
A′: ED50 MS ASSAY | ED50 MS ASSAY [5] | ED50 MS ASSAY (TABLE 4) | ED50 MS ASSAY (Table 4) | ED50 MS ASSAY [6]

COc1cc(C(=O)Nc2ccc(-c3nc4cnccc4o3)s2)cc(OC)c1OC [Compound 426]
A′: ED50 MS ASSAY [4] | ED50 MS ASSAY (Table 4) | ED50 MS ASSAY [1]

COc1cc(NC(=S)Nc2cc(-c3nc4ncccc4o3)ccn2)cc(OC)c1 [Compound 661]
A′: ED50 MS ASSAY | ED50 MS ASSAY (Table 4) | ED50 MS ASSAY (Table 4, class symbols) | ED50 MS ASSAY [1] | ED50 MS ASSAY [2]

CN(C)c1ccc(C(=O)Nc2ccccc2-c2nc3cnccc3o2)cc1 [Compound 407]
A′: ED50 MS ASSAY [4] | ED50 MS ASSAY (Table 4) | ED50 MS ASSAY [1]

COc1ccc(C(=O)Nc2ccc(-c3nc4ccccc4[nH]3)cc2)cc1OC [Compound 294]
A′: ED50 MS ASSAY [4] | ED50 MS ASSAY (Table 4) | ED50 MS ASSAY [1]

O=C(Nc1ccccc1-c1nc2cccnc2[nH]1)c1ccc(N2CCOCC2)cc1 [Compound 526]
A′: ED50 MS ASSAY | ED50 MS ASSAY (Table 4) | ED50 MS ASSAY (Table 4, class symbols) | ED50 MS ASSAY [1] | ED50 MS ASSAY [2]

COc1ccc(C(=O)Nc2ccc(-c3nc4ccccc4[nH]3)cc2)c(OC)c1 [Compound 262]
A′: ED50 MS ASSAY [4] | ED50 MS ASSAY (Table 4) | ED50 MS ASSAY [1]

COc1cc(C)ccc1C(=O)Nc1cccc(-c2nc3cccnc3[nH]2)c1 [Compound 182]
A′: ED50 MS ASSAY (TABLE 4) | ED50 MS ASSAY (Table 4) | ED50 MS ASSAY [3] | ED50 MS ASSAY (class symbols, no key given)

Cc1cc(C)cc(C(=O)Nc2ccccc2-c2nc3ncccc3o2)c1 [Compound 481]
A′: ED50 MS ASSAY (Table 4, class symbols)

O=C(Nc1ccccc1-c1cn2c(Cn3ccnc3)csc2n1)c1cnc2ccccc2n1 [Compound 745]
A′: ED50 MS ASSAY | ED50 MS ASSAY [5] | ED50 MS ASSAY (TABLE 4) | ED50 MS ASSAY (Table 4) | ED50 MS ASSAY [6]

N#Cc1cccc(C(=O)Nc2ccccc2-c2nc3cc(CN4CCOCC4)cnc3s2)c1 [Compound 685]
A′: ED50 MS ASSAY | ED50 MS ASSAY [5] | ED50 MS ASSAY (Table 4) | ED50 MS ASSAY [6]

COc1ccc(C(=O)Nc2ccc(-c3cc4cccnc4o3)cc2)c(OC)c1 [Compound 190]
A′: ED50 MS ASSAY (TABLE 4) | ED50 MS ASSAY (Table 4) | ED50 MS ASSAY [3] | ED50 MS ASSAY (class symbols, no key given)

CN(C)c1cccc(C(=O)Nc2ccccc2-c2nc3cccnc3[nH]2)c1 [Compound 524]
A′: ED50 MS ASSAY | ED50 MS ASSAY (Table 4) | ED50 MS ASSAY (Table 4, class symbols) | ED50 MS ASSAY [1] | ED50 MS ASSAY [2]

O=C(Nc1ccccc1-c1cn2c(CO)csc2n1)c1cnc2ccccc2n1 [Compound 648]
A′: ED50 MS ASSAY | ED50 MS ASSAY (Table 4) | ED50 MS ASSAY (Table 4, class symbols) | ED50 MS ASSAY [1] | ED50 MS ASSAY [2]

COc1cc(C(=O)Nc2ccccc2-c2cn3cc(CN4CCNCC4)sc3n2)cc(OC)c1OC [Compound 271]
A′: ED50 MS ASSAY [4] | ED50 MS ASSAY (Table 4) | ED50 MS ASSAY [1]

COc1ccc(C(=O)Nc2ccccc2-c2cc3ccccc3[nH]2)cc1OC [Compound 254]
A′: ED50 MS ASSAY [4] | ED50 MS ASSAY (Table 4) | ED50 MS ASSAY [1]
